In patent publication EP1072247A2, “Cosmetic and dermatological compositions based on o/w emulsions” (Beiersdorf Aktiengesellschaft, priority 1999, dated 2001):

Experiment: Interfacial tension of lipids against water (measure of polarity)
Type: physicochemical
Settings: lipids below 30 mN/m are regarded as polar
Text: Öle und Fette unterscheiden sich unter anderem in ihrer Polarität, welche schwierig zu definieren ist. Es wurde bereits vorgeschlagen, die Grenzflächenspannung gegenüber Wasser als Maß für den Polaritätsindex eines Öls bzw. einer Ölphase anzunehmen. Dabei gilt, daß die Polarität der betreffenden Ölphase um so größer ist, je niedriger die Grenzflächenspannung zwischen dieser Ölphase und Wasser ist. Erfindungsgemäß wird die Grenzflächenspannung als ein mögliches Maß für die Polarität einer gegebenen Ölkomponente angesehen.
Die Grenzflächenspannung ist diejenige Kraft, die an einer gedachten, in der Grenzfläche zwischen zwei Phasen befindlichen Linie der Länge von einem Meter wirkt. Die physikalische Einheit für diese Grenzflächenspannung errechnet sich klassisch nach der Beziehung Kraft/Länge und wird gewöhnlich in mN/m (Millinewton geteilt durch Meter) wiedergegeben. Sie hat positives Vorzeichen, wenn sie das Bestreben hat, die Grenzfläche zu verkleinern. Im umgekehrten Falle hat sie negatives Vorzeichen. Als polar im Sinne der vorliegenden Erfindung werden Lipide angesehen, deren Grenzflächenspannung gegen Wasser weniger als 30 mN/m beträgt.
Unpolare Öle sind beispielsweise solche, welche gewählt werden aus der Gruppe der verzweigten und unverzweigten Kohlenwasserstoffe und -wachse, insbesondere Vaseline (Petrolatum), Paraffinöl, Squalan und Squalen, Polyolefine und hydrogenierte Polyisobutene. […] Tabelle 1

| Compound | Grenzflächenspannungen gegen Wasser |
| --- | --- |
| Octyl Stearate [Cetiol® 868] | 28,4 mN/m |
| CCCCCCCCOCCCCCCCC [Cetiol® OE, Dicaprylyl Ether] | 22,1 mN/m |
| Octyl Palmitate [Cegesoft® C24] | 23,1 mN/m |

Further lines, results first:

| Grenzflächenspannungen gegen Wasser | Compound |
| --- | --- |
| 28,7 mN/m | CCCCCCCCCCCCCCCCCCOC(=O)CCCCCC [Tegosoft® SH, Stearyl Heptanoate] |
| 29,7 mN/m | CCCCCCCCOC(=O)CCCCCCCCCCCCCCC(C)C [Prisorine® 2036, Octyl Isostearate] |
| 21,9 mN/m | CCCCCCCCCCCCCCCCCC(=O)OC(C)C [Isopropylstearat, Isopropyl Stearate] |
| 20,2 mN/m | CCCCCCCC(=O)OCC(COC(=O)CCCCCCC)OC(=O)CCCCCCC [Trivent® OCG, Tricaprylin] |
